Tests used:
Assay in all cases: relative viability (nuclei count vs DMSO), 5 days (fraction); higher = more cells survive
Vorinostat + Palbociclib = compound: O=C(CCCCCCC(=O)Nc1ccccc1)NO [Vorinostat] + CC(=O)c1c(C)c2cnc(Nc3ccc(N4CCNCC4)cn3)nc2n(C2CCCC2)c1=O [Palbociclib] (partner 0.5 µM)
Method in brief: (§1)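 Relative viability was taken as the ratio of nuclei in treated wells to nuclei in vehicle wells. Lung cancer cell lines in 1536-well plates received compounds by pin tool one day after seeding, either one drug alone or a fixed anchor-drug dose plus five library-drug doses (not always all listed) in √10 steps. Nuclei were counted on 4× images after 5 days of treatment, and values are medians of duplicate plates.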

Vorinostat + Pictilisib = compound: O=C(CCCCCCC(=O)Nc1ccccc1)NO [Vorinostat] + CS(=O)(=O)N1CCN(Cc2cc3nc(-c4cccc5[nH]ncc45)nc(N4CCOCC4)c3s2)CC1 [Pictilisib] (partner 1 µM)
Method in brief: as §1

Vorinostat + Foretinib = compound: O=C(CCCCCCC(=O)Nc1ccccc1)NO [Vorinostat] + COc1cc2c(Oc3ccc(NC(=O)C4(C(=O)Nc5ccc(F)cc5)CC4)cc3F)ccnc2cc1OCCCN1CCOCC1 [Foretinib] (partner 0.25 µM)
Method in brief: as §1

Vorinostat + Bortezomib = compound: O=C(CCCCCCC(=O)Nc1ccccc1)NO [Vorinostat] + CC(C)C[C@H](NC(=O)[C@H](Cc1ccccc1)NC(=O)c1cnccn1)B(O)O [Bortezomib] (partner 0.002 µM)
Method in brief: as §1

Vorinostat + Crizotinib = compound: O=C(CCCCCCC(=O)Nc1ccccc1)NO [Vorinostat] + C[C@@H](Oc1cc(-c2cnn(C3CCNCC3)c2)cnc1N)c1c(Cl)ccc(F)c1Cl [Crizotinib] (partner 1 µM)
Method in brief: as §1

Cell Line | relative viability (Vorinostat + Palbociclib; first compound 0.253 µM) | relative viability (Vorinostat + Palbociclib; first compound 0.8 µM) | relative viability (Vorinostat + Palbociclib; first compound 2.53 µM) | relative viability (Vorinostat + Palbociclib; first compound 8 µM) | relative viability (Vorinostat + Pictilisib; first compound 0.253 µM) | relative viability (Vorinostat + Pictilisib; first compound 0.8 µM) | relative viability (Vorinostat + Pictilisib; first compound 2.53 µM) | relative viability (Vorinostat + Pictilisib; first compound 8 µM) | relative viability (Vorinostat + Foretinib; first compound 0.253 µM) | relative viability (Vorinostat + Foretinib; first compound 0.8 µM) | relative viability (Vorinostat + Foretinib; first compound 2.53 µM) | relative viability (Vorinostat + Foretinib; first compound 8 µM) | relative viability (Vorinostat + Bortezomib; first compound 0.253 µM) | relative viability (Vorinostat + Bortezomib; first compound 0.8 µM) | relative viability (Vorinostat + Bortezomib; first compound 2.53 µM) | relative viability (Vorinostat + Bortezomib; first compound 8 µM) | relative viability (Vorinostat + Crizotinib; first compound 0.253 µM) | relative viability (Vorinostat + Crizotinib; first compound 0.8 µM) | relative viability (Vorinostat + Crizotinib; first compound 2.53 µM) | relative viability (Vorinostat + Crizotinib; first compound 8 µM)
LXF-289 | 0.65 | 0.599 | 0.476 | 0.0862 | 0.913 | 0.704 | 0.272 | 0.088 | 0.981 | 0.97 | 0.3 | 0.0942 | 1.08 | 0.923 | 0.348 | 0.057 | 0.904 | 0.76 | 0.273 | 0.0737
NCI-H23 | 0.696 | 0.622 | 0.154 | 0.137 | 0.599 | 0.391 | 0.181 | 0.161 | 1.05 | 0.724 | 0.336 | 0.129 | 1.19 | 1.07 | 0.251 | 0.128 | 0.525 | 0.381 | 0.102 | 0.116
NCI-H322M | 0.487 | 0.445 | 0.418 | 0.356 | 0.537 | 0.541 | 0.386 | 0.317 | 1.1 | 0.925 | 0.428 | 0.309 | 1.4 | 1.25 | 0.715 | 0.392 | 0.888 | 0.758 | 0.447 | 0.194
NCI-H441 | 0.241 | 0.249 | 0.157 | 0.101 | 0.517 | 0.448 | 0.164 | 0.11 | 0.874 | 0.971 | 0.59 | 0.175 | 0.299 | 0.26 | 0.165 | 0.106 | 0.722 | 0.776 | 0.141 | 0.11
NCI-H460 | 0.146 | 0.0944 | 0.0356 | 0.011 | 0.37 | 0.279 | 0.208 | 0.0481 | 1.09 | 0.927 | 0.0567 | 0.0329 | 1.12 | 0.783 | 0.0198 | 0.0125 | 1.05 | 0.336 | 0.0241 | 0.0093
NCI-H520 | 0.351 | 0.31 | 0.19 | 0.133 | 0.369 | 0.213 | 0.21 | 0.146 | 0.965 | 0.791 | 0.555 | 0.179 | 0.605 | 0.164 | 0.13 | 0.107 | 0.796 | 0.482 | 0.133 | 0.108
NCI-H647 | 0.453 | 0.158 | 0.0854 | 0.0249 | 0.454 | 0.526 | 0.153 | 0.0703 | 1.08 | 1.04 | 0.507 | 0.0683 | 1.18 | 0.609 | 0.0719 | 0.0336 | 1.15 | 0.591 | 0.178 | 0.0502
NCI-H650 | 0.338 | 0.319 | 0.159 | 0.118 | 0.902 | 0.491 | 0.183 | 0.16 | 0.998 | 0.907 | 0.213 | 0.151 | 0.523 | 0.42 | 0.19 | 0.144 | 0.716 | 0.503 | 0.155 | 0.165
NCI-H661 | 0.437 | 0.377 | 0.286 | 0.32 | 0.557 | 0.696 | 0.462 | 0.214 | 1.11 | 0.843 | 0.447 | 0.298 | 0.839 | 0.933 | 0.439 | 0.185 | 1.01 | 1.03 | 0.483 | 0.327
NCI-H727 | 0.688 | 0.633 | 0.606 | 0.51 | 0.458 | 0.455 | 0.243 | 0.188 | 0.855 | 0.821 | 0.378 | 0.329 | 0.928 | 0.613 | 0.324 | 0.233 | 0.962 | 0.687 | 0.299 | 0.214
NCI-H838 | 0.262 | 0.218 | 0.183 | 0.116 | 0.798 | 0.675 | 0.349 | 0.142 | 1.33 | 1.05 | 0.51 | 0.173 | 1.22 | 0.864 | 0.275 | 0.134 | 0.986 | 0.76 | 0.241 | 0.105
NCI-H1355 | 0.411 | 0.356 | 0.214 | 0.138 | 0.556 | 0.329 | 0.244 | 0.165 | 1.05 | 1.01 | 0.562 | 0.156 | 1.3 | 0.978 | 0.863 | 0.131 | 1.19 | 0.963 | 0.398 | 0.138
NCI-H1437 | 0.303 | 0.265 | 0.172 | 0.124 | 0.466 | 0.167 | 0.107 | 0.088 | 1.25 | 1.22 | 0.546 | 0.171 | 0.578 | 0.417 | 0.117 | 0.0915 | 0.876 | 0.894 | 0.429 | 0.0993
NCI-H1651 | 0.545 | 0.494 | 0.154 | 0.0594 | 0.659 | 0.433 | 0.0763 | 0.0536 | 0.879 | 0.791 | 0.228 | 0.0797 | 0.934 | 0.992 | 0.807 | 0.1 | 0.846 | 0.786 | 0.232 | 0.097
